# Reference: patent US4178442A, “Novel cinnamoyles piperazines and homopiperazines, the method of preparing them and their application in therapeutics” (Delalande S. A., priority 1977, dated 1979)
# Like-named read-outs stand apart in the source and are kept apart here.
# Legend:
# [1] = in vivo; conditions: for LD50: read-out: Toxicity: LD50; for mortality: read-out: Toxicity (Mortality)
# Source text: *LD50 or percentage of mortality which is given between brackets
# [2] = tested on: anaesthetized dog; assay: Antiangorous activity on anaesthetized dog: consumption of oxygen in the left ventricule and cardiac effort (KATZ's index); format: in vivo; conditions: for inhibition in vivo at 2.3 mg/kg / inhibition in vivo at 0.625 mg/kg / inhibition in vivo at 2.5 mg/kg / inhibition in vivo at 1.25 mg/kg / inhibition in vivo at […] / inhibition in vivo at 0.6 mg/kg / inhibition in vivo at 0.54 mg/kg: Canis lupus familiaris, iv; for inhibition in vivo at […]: 0.15 mg/kg i.v. slow perfusion
# Procedure: The antiangorous activity was tested on an anaesthetized dog (sodium pentobarbital 30 mg/kg/i.v.).
# The consumption of oxygen in the left ventricule was estimated by the product of the coronary venous flow and the coronary arteriovenous difference in oxygen (% volume).
# The coronary venous flow was measured at the coronary venous sinus by means of a modified Morawitz cannula, introduced under radioscopic control.
# The cardiac effort was estimated according to KATZ's index, by the product of the average arterial pressure and the cardiac frequency.
# The cardiac frequency was estimated from the electrocardiogram recorded with D2 derivation.
# It should be noted that the compounds tested were injected intravenously with slow perfusion.
# [3] = 2.3 mg/kg i.v. slow perfusion, read-out: Diminution in consumption of O2
# [4] = 2.3 mg/kg i.v. slow perfusion, read-out: Diminution in the cardiac effort (IK)
# [5] = 0.625 mg/kg i.v. slow perfusion
# [6] = 0.625 mg/kg i.v. slow perfusion, read-out: Diminution in consumption of O2
# [7] = 0.625 mg/kg i.v. slow perfusion, read-out: Diminution in the cardiac effort (IK)
# [8] = 2.5 mg/kg i.v. slow perfusion, read-out: Diminution in consumption of O2
# [9] = 2.5 mg/kg i.v. slow perfusion, read-out: Diminution in the cardiac effort (IK)
# [10] = 1.25 mg/kg i.v. slow perfusion, read-out: Diminution in consumption of O2
# [11] = 1.25 mg/kg i.v. slow perfusion, read-out: Diminution in the cardiac effort (IK)
# [12] = read-out: Diminution in consumption of O2
# [13] = read-out: Diminution in the cardiac effort (IK)
smiles,measurement,setting,value
COc1cc(/C=C/C(=O)N2CCN(CC(O)COc3c(OC)cccc3OC)CC2)cc(OC)c1OC (stereo not shown) [760 580],LD50,[1]; iv,294 mg/kg
same,Diminution in consumption of O2: in time,[2]; 2.3 mg/kg i.v. slow perfusion,30 min
same,Diminution in the cardiac effort (IK): in time,[2]; 2.3 mg/kg i.v. slow perfusion,15 min
same,inhibition in vivo at 2.3 mg/kg,[2]; [3],19%
same,inhibition in vivo at 2.3 mg/kg,[2]; [4],26%
CCC(=O)Nc1ccc(OCC(O)CN2CCN(C(=O)/C=C/c3cc(OC)c(OC)c(OC)c3)CC2)c2c1OCCO2 (stereo not shown) [770 545],mortality,"[1]; iv, 400 mg/kg i.v.",40%
same,Diminution in consumption of O2: in time,[2]; [5],30 min
same,Diminution in the cardiac effort (IK): in time,[2]; [5],15 min
same,inhibition in vivo at 0.625 mg/kg,[2]; [6],61%
same,inhibition in vivo at 0.625 mg/kg,[2]; [7],16%
COc1cc(/C=C/C(=O)N2CCN(CC(O)COc3cccc4c3OCO4)CC2)cc(OC)c1OC (stereo not shown) [780 138],LD50,[1]; iv,150 mg/kg
same,Diminution in consumption of O2: in time,[2]; 2.5 mg/kg i.v. slow perfusion,45 min
same,Diminution in the cardiac effort (IK): in time,[2]; 2.5 mg/kg i.v. slow perfusion,30 min
same,inhibition in vivo at 2.5 mg/kg,[2]; [8],46%
same,inhibition in vivo at 2.5 mg/kg,[2]; [9],19%
CNC(=O)N(C)c1ccc(OCC(O)CN2CCN(C(=O)/C=C/c3cc(OC)c(OC)c(OC)c3)CC2)c2c1OCCO2 (stereo not shown) [771 238],mortality,"[1]; iv, 400 mg/kg i.v.",0%
same,Diminution in consumption of O2: in time,[2]; 1.25 mg/kg i.v. slow perfusion,30 min
same,Diminution in the cardiac effort (IK): in time,[2]; 1.25 mg/kg i.v. slow perfusion,30 min
same,inhibition in vivo at 1.25 mg/kg,[2]; [10],40%
same,inhibition in vivo at 1.25 mg/kg,[2]; [11],38%
CCCCNC(=O)Nc1ccc(OCC(O)CN2CCN(C(=O)/C=C/c3cc(OC)c(OC)c(OC)c3)CC2)c2c1OCCO2 (stereo not shown) [770 634],mortality,"[1]; iv, 400 mg/kg i.v.",30%
same,inhibition in vivo at […],[2]; [12],69%
same,inhibition in vivo at […],[2]; [13],27%
CCOC(=O)c1ccc(OCC(O)CN2CCN(C(=O)/C=C/c3cc(OC)c(OC)c(OC)c3)CC2)c2c1OCCO2 (stereo not shown) [760 700],mortality,"[1]; iv, 367 mg/kg i.v.",0%
same,Diminution in consumption of O2: in time,[2]; 0.6 mg/kg i.v. slow perfusion,45 min
same,Diminution in the cardiac effort (IK): in time,[2]; 0.6 mg/kg i.v. slow perfusion,60 min
same,inhibition in vivo at 0.6 mg/kg,"[2]; 0.6 mg/kg i.v. slow perfusion, read-out: Diminution in consumption of O2",59%
same,inhibition in vivo at 0.6 mg/kg,"[2]; 0.6 mg/kg i.v. slow perfusion, read-out: Diminution in the cardiac effort (IK)",47%
COc1cc(/C=C/C(=O)N2CCN(CC(O)COc3ccc(Cl)cc3)CC2)cc(OC)c1OC (stereo not shown) [760 476],LD50,[1]; iv,185 mg/kg
same,Diminution in consumption of O2: in time,[2]; 2.3 mg/kg i.v. slow perfusion,23 min
same,Diminution in the cardiac effort (IK): in time,[2]; 2.3 mg/kg i.v. slow perfusion,15 min
same,inhibition in vivo at 2.3 mg/kg,[2]; [3],70%
same,inhibition in vivo at 2.3 mg/kg,[2]; [4],5%
COc1cc(/C=C/C(=O)N2CCN(CC(O)COc3ccccc3Cl)CC2)cc(OC)c1OC (stereo not shown) [760 520],LD50,[1]; iv,157 mg/kg
same,Diminution in consumption of O2: in time,[2]; 2.3 mg/kg i.v. slow perfusion,40 min
same,Diminution in the cardiac effort (IK): in time,[2]; 2.3 mg/kg i.v. slow perfusion,30 min
same,inhibition in vivo at 2.3 mg/kg,[2]; [3],45%
same,inhibition in vivo at 2.3 mg/kg,[2]; [4],13%
CNC(=O)c1ccc(OCC(O)CN2CCN(C(=O)/C=C/c3cc(OC)c(OC)c(OC)c3)CC2)c2c1OCCO2 (stereo not shown) [760 710],mortality,"[1]; iv, 345 mg/kg i.v.",70%
same,Diminution in consumption of O2: in time,[2]; 0.54 mg/kg i.v. slow perfusion,60 min
same,Diminution in the cardiac effort (IK): in time,[2]; 0.54 mg/kg i.v. slow perfusion,30 min
same,inhibition in vivo at 0.54 mg/kg,"[2]; 0.54 mg/kg i.v. slow perfusion, read-out: Diminution in consumption of O2",64%
same,inhibition in vivo at 0.54 mg/kg,"[2]; 0.54 mg/kg i.v. slow perfusion, read-out: Diminution in the cardiac effort (IK)",36%
COc1cc(/C=C/C(=O)N2CCN(CC(O)COc3ccccc3NC(C)=O)CC2)cc(OC)c1OC (stereo not shown) [770 738],mortality,"[1]; iv, 400 mg/kg i.v.",40%
same,Diminution in consumption of O2: in time,[2]; 2.5 mg/kg i.v. slow perfusion,45 min
same,Diminution in the cardiac effort (IK): in time,[2]; 2.5 mg/kg i.v. slow perfusion,45 min
same,inhibition in vivo at 2.5 mg/kg,[2]; [8],63%
same,inhibition in vivo at 2.5 mg/kg,[2]; [9],48%
CCCC(=O)Nc1ccc(OCC(O)CN2CCN(C(=O)/C=C/c3cc(OC)c(OC)c(OC)c3)CC2)c2c1OCCO2 (stereo not shown) [770 610],mortality,"[1]; po, p.o.: 2000 mg/kg",0%
same,Diminution in consumption of O2: in time,[2]; [5],60 min
same,Diminution in the cardiac effort (IK): in time,[2]; [5],45 min
same,inhibition in vivo at 0.625 mg/kg,[2]; [6],56%
same,inhibition in vivo at 0.625 mg/kg,[2]; [7],34%
COc1cc(/C=C/C(=O)N2CCN(CC(O)COc3ccc(CC#N)c4c3OCCO4)CC2)cc(OC)c1OC (stereo not shown) [770 188],LD50,[1]; iv,219 mg/kg
COc1ccc(NC(=O)Nc2ccc(OCC(O)CN3CCN(C(=O)/C=C/c4cc(OC)c(OC)c(OC)c4)CC3)c3c2OCCO3)cc1 (stereo not shown) [780 223],Diminution in consumption of O2: in time,[2]; 2.5 mg/kg i.v. slow perfusion,90 min
same,Diminution in the cardiac effort (IK): in time,[2]; 2.5 mg/kg i.v. slow perfusion,90 min
same,inhibition in vivo at 2.5 mg/kg,[2]; [8],62%
same,inhibition in vivo at 2.5 mg/kg,[2]; [9],35%
COc1cc(/C=C/C(=O)N2CCN(CC(O)COc3ccc(C(=O)OC(C)C)c4c3OCCO4)CC2)cc(OC)c1OC (stereo not shown) [780 373],Diminution in consumption of O2: in time,[2]; 2.5 mg/kg i.v. slow perfusion,30 min
same,Diminution in the cardiac effort (IK): in time,[2]; 2.5 mg/kg i.v. slow perfusion,30 min
same,inhibition in vivo at 2.5 mg/kg,[2]; [8],66%
same,inhibition in vivo at 2.5 mg/kg,[2]; [9],25%
CNC(=O)Nc1ccc(OCC(O)CN2CCN(C(=O)/C=C/c3cc(OC)c(OC)c(OC)c3)CC2)c2ccccc12 (stereo not shown) [771 031],inhibition in vivo at […],[2]; [12],20%
same,inhibition in vivo at […],[2]; [13],25%
CCCc1ccc(OCC(O)CN2CCN(C(=O)/C=C/c3cc(OC)c(OC)c(OC)c3)CC2)cc1 (stereo not shown) [780 267],Diminution in consumption of O2: in time,[2]; 2.5 mg/kg i.v. slow perfusion,30 min
same,inhibition in vivo at 2.5 mg/kg,[2]; [8],27%
same,inhibition in vivo at 2.5 mg/kg,[2]; [9],8%
CCCCCOC(=O)c1ccc(OCC(O)CN2CCN(C(=O)/C=C/c3cc(OC)c(OC)c(OC)c3)CC2)c2c1OCCO2 (stereo not shown) [780 301],inhibition in vivo at […],[2]; [12],40%
same,inhibition in vivo at […],[2]; [13],28%
COc1cc(/C=C/C(=O)N2CCN(CC(O)COc3ccc(C(C)=O)c4ccccc34)CC2)cc(OC)c1OC (stereo not shown) [771 315],Diminution in the cardiac effort (IK): in time,[2]; 1.25 mg/kg i.v. slow perfusion,15 min
same,inhibition in vivo at 1.25 mg/kg,[2]; [10],11%
same,inhibition in vivo at 1.25 mg/kg,[2]; [11],29%
COc1cc(/C=C/C(=O)N2CCN(CC(O)CSc3cccc4c3OCCO4)CC2)cc(OC)c1OC (stereo not shown) [780 389],Diminution in consumption of O2: in time,[2]; 2.5 mg/kg i.v. slow perfusion,15 min
same,Diminution in the cardiac effort (IK): in time,[2]; 2.5 mg/kg i.v. slow perfusion,30 min
same,inhibition in vivo at 2.5 mg/kg,[2]; [8],32%
same,inhibition in vivo at 2.5 mg/kg,[2]; [9],15%
COc1cc(/C=C/C(=O)N2CCN(CC(O)COc3c(Cl)cc(C(C)=O)cc3Cl)CC2)cc(OC)c1OC (stereo not shown) [780 339],Diminution in consumption of O2: in time,[2]; 2.5 mg/kg i.v. slow perfusion,45 min
same,Diminution in the cardiac effort (IK): in time,[2]; 2.5 mg/kg i.v. slow perfusion,40 min
same,inhibition in vivo at 2.5 mg/kg,[2]; [8],74%
same,inhibition in vivo at 2.5 mg/kg,[2]; [9],42%
COc1cc(/C=C/C(=O)N2CCN(CC(O)COc3ccc(C(C)=O)cc3Cl)CC2)cc(OC)c1OC (stereo not shown) [780 401],Diminution in consumption of O2: in time,[2]; 2.5 mg/kg i.v. slow perfusion,30 min
same,inhibition in vivo at 2.5 mg/kg,[2]; [8],64%
same,inhibition in vivo at 2.5 mg/kg,[2]; [9],6%
CNC(=O)Nc1ccc(OCC(O)CN2CCCN(C(=O)/C=C/c3cc(OC)c(OC)c(OC)c3)CC2)c2c1OCCO2 (stereo not shown) [780 374],Diminution in consumption of O2: in time,[2]; 2.5 mg/kg i.v. slow perfusion,30 min
same,Diminution in the cardiac effort (IK): in time,[2]; 2.5 mg/kg i.v. slow perfusion,15 min
same,inhibition in vivo at 2.5 mg/kg,[2]; [8],39%
same,inhibition in vivo at 2.5 mg/kg,[2]; [9],31%
CNC(=O)c1ccc(OCCCN2CCN(C(=O)/C=C/c3cc(OC)c(OC)c(OC)c3)CC2)c2c1OCCO2 [771 163],Diminution in consumption of O2: in time,[2]; [5],30 min
same,Diminution in the cardiac effort (IK): in time,[2]; [5],40 min
same,inhibition in vivo at 0.625 mg/kg,[2]; [6],61%
same,inhibition in vivo at 0.625 mg/kg,[2]; [7],20%
